Experimental data from the supplement of paper PMC6965134.
± gives the standard deviation of the averaged measurements.

Assay: TIMS collisional cross section (CCS, N2) of the lipid ion; higher = larger ion cross section
Details: ionization mode: positive, one isomer drawn

| SMILES | TIMS collisional cross section (sample type: Liver) [Å²] | TIMS collisional cross section (sample type: plasma) [Å²] | TIMS collisional cross section (sample type: HeLa) [Å²] |
| --- | --- | --- | --- |
| CCCCC/C=C\C/C=C\CCCCCCCC(=O)OC[C@@H](COC(=O)CCCCCCCCCCCCCCCC)OC(=O)CCCCCCC/C=C\CCCCCCCC [TG 17:0_18:1_18:2] (ion (formula + adduct): [C56H102O6+NH4] 1+) | 322.9 | 323.2 | – |
| CCCCCCCC/C=C\CCCCCCCCCC(=O)OC[C@@H](COC(=O)CCCCCCCCCCCCCCCC)OC(=O)CCCCCCC/C=C\CCCCCCCC [TG 17:0_18:1_20:1] (ion (formula + adduct): [C58H108O6+NH4] 1+) | 331.2 | 332 | 330.7 |
| CCCCC/C=C\C/C=C\CCCCCCCCCC(=O)OC[C@@H](COC(=O)CCCCCCCCCCCCCCCC)OC(=O)CCCCCCC/C=C\CCCCCCCC [TG 17:0_18:1_20:2] (ion (formula + adduct): [C58H106O6+NH4] 1+) | – | 329.3 | – |
| CCCCCCCC/C=C\CCCCCCCC(=O)O[C@H](COC(=O)CCCCCCCCCCCCCCCC)COC(=O)CCCCCCCCCCCCCCCCCCCCC [TG 17:0_18:1_22:0] (ion (formula + adduct): [C60H114O6+NH4] 1+) | 338.8 | 338.7 | – |
| CCCCC/C=C\C/C=C\C/C=C\C/C=C\CCCC(=O)OC[C@@H](COC(=O)CCCCCCCCCCCCCCCC)OC(=O)CCCCCCC/C=C\C/C=C\CCCCC [TG 17:0_18:2_20:4] (ion (formula + adduct): [C58H100O6+NH4] 1+) | 326.4 | – | – |
| CCCCCCC/C=C\CCCCCCCC(=O)OC[C@H](COC(=O)CCCCCCC/C=C\CCCCCCCC)OC(=O)CCCCCCCCCCCCCCCCC [TG 17:1_18:0_18:1] (ion (formula + adduct): [C56H104O6+NH4] 1+) | 325.6 | – | – |
| CCCCCCC/C=C\CCCCCCCC(=O)OC[C@H](COC(=O)CCCCCCC/C=C\CCCCCCCC)OC(=O)CCCCCCC/C=C\CCCCCCCC [TG 17:1_18:1_18:1] (ion (formula + adduct): [C56H102O6+NH4] 1+) | – | – | 323.2 |
| CCCCC/C=C\C/C=C\CCCCCCCC(=O)OC[C@@H](COC(=O)CCCCCCC/C=C\CCCCCCC)OC(=O)CCCCCCC/C=C\CCCCCCCC [TG 17:1_18:1_18:2] (ion (formula + adduct): [C56H100O6+NH4] 1+) | – | 320.6 | 320.8 |
| CCCCCCC/C=C\CCCCCCCC(=O)OC[C@H](COC(=O)CCCCCCCCCCCCCCCCCC)OC(=O)CCCCCCC/C=C\CCCCCCCC [TG 17:1_18:1_19:0] (ion (formula + adduct): [C57H106O6+NH4] 1+) | 328.8 | – | – |
| CCCCC/C=C\C/C=C\C/C=C\CCCCCCCCC(=O)OC[C@@H](COC(=O)CCCCCCC/C=C\CCCCCCC)OC(=O)CCCCCCC/C=C\CCCCCCCC [TG 17:1_18:1_22:3] (ion (formula + adduct): [C60H106O6+NH4] 1+) | – | – | 332 |
| CC/C=C\C/C=C\C/C=C\C/C=C\C/C=C\CCCCCC(=O)OC[C@@H](COC(=O)CCCCCCC/C=C\CCCCCCC)OC(=O)CCCCCCC/C=C\CCCCCCCC [TG 17:1_18:1_22:5] (ion (formula + adduct): [C60H102O6+NH4] 1+) | – | – | 328.8 |
| CC/C=C\C/C=C\C/C=C\C/C=C\C/C=C\C/C=C\CCC(=O)OC[C@@H](COC(=O)CCCCCCC/C=C\CCCCCCC)OC(=O)CCCCCCC/C=C\CCCCCCCC [TG 17:1_18:1_22:6] (ion (formula + adduct): [C60H100O6+NH4] 1+) | – | – | 328.2 |
| CCCCC/C=C\C/C=C\CCCCCCCC(=O)OC[C@@H](COC(=O)CCCCCCC/C=C\CCCCCCC)OC(=O)CCCCCCC/C=C\C/C=C\CCCCC [TG 17:1_18:2_18:2] (ion (formula + adduct): [C56H98O6+NH4] 1+) | 317.5 | 318.3 | – |
| CC/C=C\C/C=C\C/C=C\CCCCCCCC(=O)OC[C@@H](COC(=O)CCCCCCC/C=C\CCCCCCC)OC(=O)CCCCCCC/C=C\C/C=C\CCCCC [TG 17:1_18:2_18:3] (ion (formula + adduct): [C56H96O6+NH4] 1+) | – | 317.2 | – |
| CCCCC/C=C\C/C=C\C/C=C\C/C=C\CCCC(=O)OC[C@@H](COC(=O)CCCCCCC/C=C\CCCCCCC)OC(=O)CCCCCCC/C=C\C/C=C\CCCCC [TG 17:1_18:2_20:4] (ion (formula + adduct): [C58H98O6+NH4] 1+) | 322.8 | – | – |
| CCCCCCC/C=C\CCCCCCCC(=O)OC[C@H](COC(=O)CCCCCCCCCCC/C=C\CCCCCCCC)OC(=O)CCCCCCCCC/C=C\CCCCCCCC [TG 17:1_20:1_22:1] (ion (formula + adduct): [C62H114O6+NH4] 1+) | 340 | – | – |

| SMILES | TIMS collisional cross section (sample type: Liver) [Å²] | TIMS collisional cross section (sample type: plasma) [Å²] | TIMS collisional cross section (sample type: HeLa) [Å²] |
| --- | --- | --- | --- |
| CCCC/C=C\C/C=C\CCCCCCCC(=O)OC[C@H](COC(=O)CCC/C=C\C/C=C\C/C=C\C/C=C\CCCCC)OC(=O)CCCCCCC/C=C\C/C=C\CCCCC [TG 17:2_18:2_20:4] (ion (formula + adduct): [C58H96O6+NH4] 1+) | 322.2 | – | – |
| CCCCCCCC/C=C\CCCCCCCC(=O)OC[C@@H](COC(=O)CCCCCCCCCCCCCCCCC)OC(=O)CCCCCCCCCCCCCCCCC [TG 18:0_18:0_18:1] (ion (formula + adduct): [C57H108O6+NH4] 1+) | – | 330.6 | – |
| CCCCCCCCCCCCCCCCCCCCCC(=O)OC[C@@H](COC(=O)CCCCCCCCCCCCCCCCC)OC(=O)CCCCCCCCCCCCCCCCC [TG 18:0_18:0_22:0] (ion (formula + adduct): [C61H118O6+NH4] 1+) | 344.1 | – | – |
| CCCCCCCC/C=C\CCCCCCCC(=O)OC[C@@H](COC(=O)CCCCCCCCCCCCCCCCC)OC(=O)CCCCCCC/C=C\CCCCCCCC [TG 18:0_18:1_18:1] (ion (formula + adduct): [C57H106O6+NH4] 1+) | – | 328.45 ± 0.49 | – |
| CCCCC/C=C\C/C=C\CCCCCCCC(=O)OC[C@@H](COC(=O)CCCCCCCCCCCCCCCCC)OC(=O)CCCCCCC/C=C\CCCCCCCC [TG 18:0_18:1_18:2] (ion (formula + adduct): [C57H104O6+NH4] 1+) | 326.4 | 326.25 ± 0.49 | 325.1 |
| CC/C=C\C/C=C\C/C=C\CCCCCCCC(=O)OC[C@@H](COC(=O)CCCCCCCCCCCCCCCCC)OC(=O)CCCCCCC/C=C\CCCCCCCC [TG 18:0_18:1_18:3] (ion (formula + adduct): [C57H102O6+NH4] 1+) | 324.1 | – | – |
| CCCCCCCC/C=C\CCCCCCCCCC(=O)OC[C@@H](COC(=O)CCCCCCCCCCCCCCCCC)OC(=O)CCCCCCC/C=C\CCCCCCCC [TG 18:0_18:1_20:1] (ion (formula + adduct): [C59H110O6+NH4] 1+) | – | 334.1 | 333.7 |
| CCCCCCCC/C=C\CCCCCCCC(=O)O[C@H](COC(=O)CCCCCCCCCCCCCCCCC)COC(=O)CCCCCCCCCCCCCCCCCCCCC [TG 18:0_18:1_22:0] (ion (formula + adduct): [C61H116O6+NH4] 1+) | 342 | 341.9 | 341.8 |
| CCCCCCCC/C=C\CCCCCCCCCCCC(=O)OC[C@@H](COC(=O)CCCCCCCCCCCCCCCCC)OC(=O)CCCCCCC/C=C\CCCCCCCC [TG 18:0_18:1_22:1] (ion (formula + adduct): [C61H114O6+NH4] 1+) | – | – | 339.3 |
| CCCCC/C=C\C/C=C\C/C=C\CCCCCCCCC(=O)OC[C@@H](COC(=O)CCCCCCCCCCCCCCCCC)OC(=O)CCCCCCC/C=C\CCCCCCCC [TG 18:0_18:1_22:3] (ion (formula + adduct): [C61H110O6+NH4] 1+) | – | – | 336.5 |
| CC/C=C\C/C=C\C/C=C\C/C=C\C/C=C\C/C=C\CCC(=O)OC[C@@H](COC(=O)CCCCCCCCCCCCCCCCC)OC(=O)CCCCCCC/C=C\CCCCCCCC [TG 18:0_18:1_22:6] (ion (formula + adduct): [C61H104O6+NH4] 1+) | 333.4 | – | 333.1 |
| CCCCC/C=C\C/C=C\CCCCCCCCCC(=O)OC[C@@H](COC(=O)CCCCCCCCCCCCCCCCC)OC(=O)CCCCCCC/C=C\C/C=C\CCCCC [TG 18:0_18:2_20:2] (ion (formula + adduct): [C59H106O6+NH4] 1+) | 330.3 | – | – |
| CCCCC/C=C\C/C=C\C/C=C\C/C=C\CCCCCC(=O)OC[C@@H](COC(=O)CCCCCCCCCCCCCCCCC)OC(=O)CCCCCCC/C=C\C/C=C\CCCCC [TG 18:0_18:2_22:4] (ion (formula + adduct): [C61H106O6+NH4] 1+) | – | – | 335.4 |
| CC/C=C\C/C=C\C/C=C\C/C=C\C/C=C\CCCC(=O)OC[C@@H](COC(=O)CCCCCCCCCCCCCCCCC)OC(=O)CCCCCCC/C=C\C/C=C\C/C=C\CC [TG 18:0_18:3_20:5] (ion (formula + adduct): [C59H98O6+NH4] 1+) | – | 325.1 | – |
| CCCCCCCCCCCCCCCCCCCCCC(=O)OC[C@@H](COC(=O)CCCCCCCCCCCCCCCCC)OC(=O)CCCCCCCCCCCCCCCCCC [TG 18:0_19:0_22:0] (ion (formula + adduct): [C62H120O6+NH4] 1+) | 346.5 | – | – |
